Laboratory results as given in patent publication US20220160750A1, “SINGLE-NUCLEI CHARACTERIZATION OF AMYOTROPHIC LATERAL SCLEROSIS FRONTAL CORTEX” (President and Fellows of Harvard College, priority 2020, published 2022).
Where a SMILES comes first, the peptide text is derived from it. The star is where a group is joined. Cbz = O=C(OCc1ccccc1)*

What was measured:
[1] = tested on: neurons derived from human Pluripotent Stem Cells (hPSC); test: TDP-43 localisation (immunofluorescence) after proteasome inhibitor treatment of hPSC-derived neurons; format: cell-based; details: MG132 applied for 24 hrs
Procedure: (§1) In contrast, DEGs identified in THY1-cells were connected to cellular stresses previously associated with ALS^1,2 (FIG. 7D) and many were shared with transcriptional changes identified in patients' excitatory cells as a whole (FIG. 8B). […] It was next asked if aspects of these changes could be modeled in vitro using neurons derived from human Pluripotent Stem Cells (hPSC) (FIG. 15A).
Human embryonic stem cells were cultured in mTESR (Stemcell technologies) on matrigel (Corning). Neurons were generated from HuES-3-Hb9:GFP based on the motor neuron differentiation protocol previously described^27. Upon completion of the differentiation protocol, cells were sorted via flow-cytometry based on GFP signal intensity to yield GFP-positive neurons that were plated on PDL/laminin-coated plates (Sigma, Life technologies). Neurons were maintained in Neurobasal medium (Life Technologies) supplemented with N2 (Stemcell technologies), B27 (Life technologies), glutamax (Life technologies), non-essential amino acids (Life technologies), and neurotrophic factors (BDNF, GDNF, CNTF), and were grown for 28 days before the application of the proteasome inhibitors MG132 for 24 hrs.

[2] = tested on: neurons derived from human Pluripotent Stem Cells (hPSC); test: Bulk RNA-sequencing of hPSC-derived neurons after proteasome inhibitor treatment; format: cell-based; details: MG132 applied for 24 hrs, compared with excitatory neurons from sALS patients
Procedure: as §1
Human embryonic stem cells were cultured in mTESR (Stemcell technologies) on matrigel (Corning). Neurons were generated from HuES-3-Hb9:GFP based on the motor neuron differentiation protocol previously described^27. Upon completion of the differentiation protocol, cells were sorted via flow-cytometry based on GFP signal intensity to yield GFP-positive neurons that were plated on PDL/laminin-coated plates (Sigma, Life technologies). […]
RNA was extracted using RNeasy Plus kit (Qiagen), libraries were prepared using the Illumina TruSeq RNA kit v2 according to the manufacturer's directions, and sequenced at the Broad Institute core with samples randomly assigned between two flow chambers. […] The read counts were obtained from the aligned BAM-files in R using Rsubread. Differential gene expression was analyzed from the read counts in DESeq2 using a Wald's test for the treatment dosage and controlling for the sequencing flow cell.

CC(C)C[C@@H](C=O)NC(=O)[C@H](CC(C)C)NC(=O)[C@H](CC(C)C)NC(=O)OCc1ccccc1 [MG132] (Cbz-Leu-Leu-Leu-aldehyde)
nuclear loss of TDP-43 [1]: sufficient to induce nuclear loss of TDP-43
transcriptomic changes after treatment (RNA-sequencing) [2]: widespread transcriptomic changes after treatment
